Data taken from patent US20090155352A1, “Microemulsion containing indolocarbazole compound and dosage forms containing the same” (Cephalon, Inc., priority 2007, published 2009).
Converted amounts (≈) assume the structure as drawn. Values belong to the molecule of their own block, whether it stands above or below them.

Tests used:
[1] = AIBN forced degradation screen of antioxidants in lestaurtinib microemulsions; format: physicochemical; details: AIBN screening; for antioxidant effect against oxidation of lestaurtinib microemulsion: first experiment, thirteen formulations
Procedure: Various antioxidants were evaluated for their effectiveness in relation to the composition of the invention. In an initial experiment, capsules containing a lestaurtinib composition prepared according to the invention were placed on accelerated stability conditions. Several impurities were determined (LC-MS) to be related to the oxidation of lestaurtinib. Subsequently, a forced degradation experiment was performed using the radical initiator azoisobutyronitrile (AIBN) adapted for use with lestaurtinib. This was based on the fact that AIBN radical initiates the autoxidation mechanism that the majority of active ingredients follow for oxidation.
Using AIBN as a screening tool, a series of microemulsions prepared in accordance with the invention were formulated using different antioxidants to identify suitable solutions for preventing degradation of the composition. The first experiment used thirteen formulations using several classes of antioxidants (i.e., oxygen scavengers, sacrificial antioxidants and H-atom donors) to determine which reaction pathway was critical for disrupting the oxidation process. From this first experiment, several antioxidants were identified as efficacious: ascorbic acid, vitamin E, BHA and BHT.
A second experiment was then performed based on the information obtained from the first experiment. The second experiment evaluated combinations of antioxidants from different classes, different isomers of the same antioxidants, and mixtures of water-soluble and oil-soluble antioxidants.

[2] = Maximum solubility of lestaurtinib in prior solid state solution / SEDDS formulations; details: vehicle 25% PEG 400, 25% PEG 1000, 50% MYRJ 52, no added water
Description: This formulation was a self-emulsifying drug delivery system (SEDDS) comprised of a blend of polyoxyethylene glycols (PEGs) and MYRJ® 52 (polyoxyethylene 40 stearate surfactant available from Croda N.A., Parsippany, N.J.).

[3] = Water solubility of lestaurtinib; format: physicochemical; details: at 22° C.
[4] = Solubilized concentration of lestaurtinib in microemulsion formed with added water
Procedure: In one embodiment, microemulsions containing solubilized indolocarbazole compounds, e.g., lestaurtinib, can be prepared using the hydrophilic component and water in the excipient composition but without the presence of the surfactant, e.g., MYRJ®. In one example, a composition without surfactant was prepared as follows. Lestaurtinib 120 mg was weighed into a glass vial and 2 mL of molten PEG-1450 was added.

[5] = microemulsion with water addition

- antioxidant effect against oxidation of lestaurtinib microemulsion [1]: efficacious
Molecule: vitamin E

Molecule: C[C@]12O[C@H](C[C@]1(O)CO)n1c3ccccc3c3c4c(c5c6ccccc6n2c5c31)CNC4=O [lestaurtinib, [9S-(9α,10β,12α)]-2,3,9,10,11,12-hexahydro-10-hydroxy-10-(hydroxymethyl)-9-methyl-9,12-epoxy-1H-diindolo[1,2,3-fg:3′,2′,1′-kl]pyrrolo[3,4-i][1,6]benzodiazocin-1-one]
- maximum solubility obtainable in SEDDS formulation [2]: about 29 mg/g
- solubility [3]: 1.7 µg/mL (≈ 3.87 µM)
- final concentration of lestaurtinib in clear solution ([4]; Example 13, PEG-1450 and water, without surfactant, by HPLC): 59.2 mg/mL
- solubilized concentration achieved using the invention [4, 5]: 87 mg/g
- solubilized concentration achieved using the invention (total composition weight) [4, 5]: about 9%

Molecule: O=S([O-])S(=O)(=O)[O-].[K+].[K+] [potassium metabisulfite]
- effect on impurity levels in final formulation ([1]; second experiment): decreased the overall impurity levels

Molecule: COc1ccc(O)c(C(C)(C)C)c1 [BHA, butylhydroxyanisole]
- antioxidant effect against oxidation of lestaurtinib microemulsion [1]: efficacious

- antioxidant effect against oxidation of lestaurtinib microemulsion [1]: efficacious
Molecule: O=C1O[C@H]([C@@H](O)CO)C(O)=C1O [ascorbic acid]
